Experimental data taken from paper PMC3898987 (Bioorganic & Medicinal Chemistry, 2013).
Numbering of substitutions follows the chain as printed.

What was measured:
[1] = target: T1, 5-HT3AB receptor, 5-HT3B subunit H73A (Homo sapiens, UniProt O95264+P46098, H66A); test: cell-based
T1 sequence (P46098 24-478): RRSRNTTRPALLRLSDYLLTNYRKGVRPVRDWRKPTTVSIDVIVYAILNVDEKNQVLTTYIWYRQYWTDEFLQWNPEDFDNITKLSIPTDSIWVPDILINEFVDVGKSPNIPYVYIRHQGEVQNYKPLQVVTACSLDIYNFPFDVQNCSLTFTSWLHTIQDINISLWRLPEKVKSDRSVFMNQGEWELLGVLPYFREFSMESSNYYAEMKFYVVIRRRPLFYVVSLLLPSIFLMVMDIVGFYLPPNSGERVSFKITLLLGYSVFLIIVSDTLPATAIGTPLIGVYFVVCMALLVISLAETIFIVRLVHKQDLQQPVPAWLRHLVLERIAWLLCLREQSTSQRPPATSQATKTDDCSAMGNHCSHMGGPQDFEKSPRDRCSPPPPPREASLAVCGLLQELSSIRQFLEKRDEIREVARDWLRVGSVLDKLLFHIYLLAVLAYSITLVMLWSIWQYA
T1 sequence (O95264 22-441 H66A): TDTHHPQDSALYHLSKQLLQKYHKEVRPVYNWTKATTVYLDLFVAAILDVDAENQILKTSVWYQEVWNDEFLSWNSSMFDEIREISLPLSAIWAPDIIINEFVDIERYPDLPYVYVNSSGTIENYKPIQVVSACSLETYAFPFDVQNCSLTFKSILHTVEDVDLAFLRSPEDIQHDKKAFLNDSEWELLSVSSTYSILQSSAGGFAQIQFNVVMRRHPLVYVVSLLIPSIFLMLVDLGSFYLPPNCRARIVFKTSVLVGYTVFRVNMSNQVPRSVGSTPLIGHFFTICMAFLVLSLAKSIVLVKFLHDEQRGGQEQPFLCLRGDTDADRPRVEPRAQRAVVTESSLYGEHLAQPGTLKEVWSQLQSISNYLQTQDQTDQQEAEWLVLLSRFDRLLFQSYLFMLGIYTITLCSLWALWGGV
Description: Human embryonic kidney (HEK) 293 cells were cultured on 90 mm tissue culture plates at 37 °C and 7% CO2 in a humidified atmosphere. They were grown in DMEM:F12 (Dulbecco’s Modified Eagle’s Medium/Nutrient Mix F12 (1:1)) with GlutaMAX I™ containing 10% fetal calf serum and passaged when confluent. […] For FlexStation assays, transfected cells were plated on 96-well plates and incubated 1–2 days before assay.
(§1) Fluorometric studies were undertaken using a FlexStation® (Molecular Devices, Sunnyvale, CA, USA) as previously described.[11]
(§2) Fluorescence was measured every 2 s for 200 s. […] Concentration–response and inhibition curves were obtained for each mutant, and the fluorescence values were normalized to the maximal response.

5-HT3A receptor S163T [2] = target: T2, 5-HT3A receptor S163T (Homo sapiens, UniProt P46098, S158T); test: FlexStation membrane potential dye functional assay, HEK293 cells; type: cell-based; set-up: expressed in transfected cells; host or cells: HEK293; conditions: inhibition of 5-HT (EC50 concentration) response, 45 min preincubation, 5-HT3A S163T
T2 sequence (P46098 24-478 S158T): T1 sequence (P46098 24-478) with S135T
Description: For FlexStation assays, transfected cells were plated on 96-well plates and incubated 1–2 days before assay.
as §1, §2

5-HT3A receptor F130Y = target: T3, 5-HT3A receptor F130Y (Homo sapiens, UniProt P46098, F125Y); test: radioligand saturation binding, transfected HEK293 membranes; conditions: [3H]-palonosetron saturation, 5-HT3A F130Y, 4 °C, 24 h
T3 sequence (P46098 24-478 F125Y): T1 sequence (P46098 24-478) with F102Y
Description: (§3) Human embryonic kidney (HEK) 293 cells were cultured on 90 mm tissue culture plates at 37 °C and 7% CO2 in a humidified atmosphere. They were grown in DMEM:F12 (Dulbecco’s Modified Eagle’s Medium/Nutrient Mix F12 (1:1)) with GlutaMAX I™ containing 10% fetal calf serum and passaged when confluent. For radioligand binding studies, cells in 90 mm dishes were transfected at 60–70% confluency using polyethyleneimine and incubated for 3–4 days before use. For FlexStation assays, transfected cells were plated on 96-well plates and incubated 1–2 days before assay. […]
(§4) Eight-point binding assays were performed to produce saturation binding curves. […] Radioactive counts were measured using a Beckman LS6000SC liquid scintillation counter (Fullerton, California, USA).
(§5) Data were analyzed by iterative curve fitting using GraphPad Prism v5 (San Diego, CA) according to the following equation: B=Bmax[L]^n/kdn+[L]^n where B is the amount of bound radioligand, Bmax is the maximum specific binding at equilibrium, [L] is the concentration of radioligand, Kd is the equilibrium dissociation constant of the radioligand, and n is the Hill coefficient.

5-HT3A receptor S163T [3] = target: T2, 5-HT3A receptor S163T; test: as above; conditions: [3H]-palonosetron saturation, 5-HT3A S163T, 4 °C, 24 h
Description: as §3, §4, §5

5-HT3A receptor D165K = target: T4, 5-HT3A receptor D165K (Homo sapiens, UniProt P46098, D160K); test: as above; conditions: [3H]-palonosetron saturation, 5-HT3A D165K, 4 °C, 24 h
T4 sequence (P46098 24-478 D160K): T1 sequence (P46098 24-478) with D137K
Description: as §3, §4, §5

[4] = target: T1, 5-HT3AB receptor, 5-HT3B subunit H73A; test: as above; conditions: [3H]-palonosetron saturation, 5-HT3AB with 5-HT3B H73A, 4 °C, 24 h
Description: as §3, §4, §5

O=C1c2cccc3c2[C@H](CCC3)CN1[C@@H]1CN2CCC1CC2 [Palonosetron]
IC50 [1]: 0.97 ± 0.26 nM
IC50 (5-HT3A receptor S163T [2]): 1.02 ± 0.19 nM
Kd (5-HT3A receptor F130Y): 0.26 ± 0.09 nM
Kd (5-HT3A receptor S163T [3]): 0.22 ± 0.05 nM
Kd (5-HT3A receptor D165K): 0.36 ± 0.02 nM
Kd [4]: 0.14 ± 0.02 nM
